Among the data in patent publication US12350272B2, “Pyridopyrimidinone derivatives for use as AXL inhibitors” (OSCOTEC INC., priority 2018, dated 2025) are IC50 values, retold here.

Structures can show the parent of a compound that is named as a salt.

Sequence of Truncated human Axl (P30530 26-894 limits assumed): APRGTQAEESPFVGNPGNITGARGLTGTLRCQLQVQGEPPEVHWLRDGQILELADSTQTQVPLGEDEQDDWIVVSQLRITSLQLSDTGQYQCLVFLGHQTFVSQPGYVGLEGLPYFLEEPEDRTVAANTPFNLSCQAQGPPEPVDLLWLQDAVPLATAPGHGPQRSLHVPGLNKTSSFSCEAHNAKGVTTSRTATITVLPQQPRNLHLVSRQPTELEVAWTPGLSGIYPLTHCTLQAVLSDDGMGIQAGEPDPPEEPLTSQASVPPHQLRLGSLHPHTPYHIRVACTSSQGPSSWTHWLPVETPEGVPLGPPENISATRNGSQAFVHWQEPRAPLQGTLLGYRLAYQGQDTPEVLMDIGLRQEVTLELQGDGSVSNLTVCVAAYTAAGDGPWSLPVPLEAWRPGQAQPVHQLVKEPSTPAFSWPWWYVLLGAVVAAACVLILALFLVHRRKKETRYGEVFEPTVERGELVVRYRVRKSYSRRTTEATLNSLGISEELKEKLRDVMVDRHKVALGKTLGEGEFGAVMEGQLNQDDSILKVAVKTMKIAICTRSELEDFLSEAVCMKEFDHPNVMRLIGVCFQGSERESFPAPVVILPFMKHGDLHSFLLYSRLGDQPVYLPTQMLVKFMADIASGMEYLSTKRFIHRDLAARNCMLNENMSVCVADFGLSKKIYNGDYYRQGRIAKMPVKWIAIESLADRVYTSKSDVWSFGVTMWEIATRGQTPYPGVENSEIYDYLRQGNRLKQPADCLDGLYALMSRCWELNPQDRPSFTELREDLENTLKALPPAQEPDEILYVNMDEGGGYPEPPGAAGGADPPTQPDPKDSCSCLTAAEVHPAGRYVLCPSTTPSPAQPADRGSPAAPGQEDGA

In one assay the target is JAK2 (Homo sapiens (Human), UniProt O60674). The assay is described as follows: Biochemical inhibition of JAK2. To be noted: Table 2, range of IC50 value.
Sequence of JAK2 (O60674 whole entry, species assumed): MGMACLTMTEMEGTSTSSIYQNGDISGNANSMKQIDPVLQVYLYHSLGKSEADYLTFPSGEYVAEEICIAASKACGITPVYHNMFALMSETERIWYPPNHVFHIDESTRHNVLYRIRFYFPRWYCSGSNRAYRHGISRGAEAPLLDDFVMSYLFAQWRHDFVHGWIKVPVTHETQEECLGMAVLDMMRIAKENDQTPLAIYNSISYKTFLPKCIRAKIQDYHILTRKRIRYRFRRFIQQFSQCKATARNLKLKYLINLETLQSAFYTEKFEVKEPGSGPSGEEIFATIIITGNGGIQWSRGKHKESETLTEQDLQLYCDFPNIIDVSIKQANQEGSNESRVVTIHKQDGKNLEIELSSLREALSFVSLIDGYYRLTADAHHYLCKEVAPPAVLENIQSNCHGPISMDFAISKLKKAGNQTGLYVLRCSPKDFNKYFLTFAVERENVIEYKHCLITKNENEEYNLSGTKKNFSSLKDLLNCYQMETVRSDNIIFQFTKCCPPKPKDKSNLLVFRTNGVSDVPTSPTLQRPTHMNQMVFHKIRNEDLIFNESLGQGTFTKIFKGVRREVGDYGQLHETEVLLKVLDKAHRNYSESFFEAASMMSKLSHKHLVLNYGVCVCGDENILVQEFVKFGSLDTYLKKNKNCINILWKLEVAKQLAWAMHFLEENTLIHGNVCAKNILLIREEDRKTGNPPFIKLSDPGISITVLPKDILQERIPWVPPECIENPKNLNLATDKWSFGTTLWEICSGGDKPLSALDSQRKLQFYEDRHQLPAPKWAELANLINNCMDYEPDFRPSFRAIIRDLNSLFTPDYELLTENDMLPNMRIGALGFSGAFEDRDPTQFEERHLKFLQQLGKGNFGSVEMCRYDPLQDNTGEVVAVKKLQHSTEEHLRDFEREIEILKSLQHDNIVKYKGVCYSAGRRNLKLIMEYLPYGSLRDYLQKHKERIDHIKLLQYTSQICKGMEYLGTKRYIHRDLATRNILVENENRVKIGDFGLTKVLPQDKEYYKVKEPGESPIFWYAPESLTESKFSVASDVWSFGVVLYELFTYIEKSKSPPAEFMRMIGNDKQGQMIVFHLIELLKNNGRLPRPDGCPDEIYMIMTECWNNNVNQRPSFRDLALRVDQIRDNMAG
With `CN1CCC(Nc2nc(Nc3ccc(Oc4ccccc4)cc3)c3c(=O)[nH]cc(Br)c3n2)CC1` [Compound 222, 8-bromo-2-((1-methylpiperidin-4-yl)amino)-4-((4-phenoxyphenyl)amino)pyrido[4,3-d]pyrimidin-5(6H)-one], the IC50 was in the range of 0.101 to 1 µM.

In the case of `CN1CCC(Nc2nc(Nc3ccc(OC4CCCC4)cc3)c3c(=O)[nH]cc(Br)c3n2)CC1` [Compound 223, 8-bromo-4-((4-(cyclopentyloxy)phenyl)amino)-2-((1-methylpiperidin-4-yl)amino)pyrido[4,3-d]pyrimidin-5(6H)-one], the IC50 lay in the range of 0.101 to 1 µM.

`Cc1ccc(Oc2ccc(Nc3nc(NC4CCN(C)CC4)nc4c(Br)c[nH]c(=O)c34)cc2)cc1` [Compound 225, 8-bromo-2-((1-methylpiperidin-4-yl)amino)-4-((4-(p-tolyloxy)phenyl)amino)pyrido[4,3-d]pyrimidin-5(6H)-one] returned an IC50 of 1 to 10 µM.

A further assay addresses Truncated human Axl (Homo sapiens, UniProt P30530). The assay is described as follows: Kinase inhibition assay (inhibition of enzymatic Axl kinase activity). The assay is classed as biochemical. The conditions noted are these: Table 1; read-out: Axl (IC50). The method, then: Compounds of Formula (I) as obtained above were assayed to measure their capacity to inhibit Axl kinase. Axl belongs to the recently identified TYRO-3, Axl, MERTK (TAM) receptor tyrosine kinase (RTK) family. […] Upon GAS6 binding, Axl homodimerizes and subsequently induces several downstream signaling pathways involved in cell proliferation, migration, invasion, anti-apoptosis, angiogenesis, metastasis, and therapeutic resistance. Upregulation of Axl has been reported in a wide variety of cancer cell lines as well as in cancer specimens from patients with breast cancer, acute leukemia, colorectal cancer, lung cancer, melanoma, ovarian cancer, or prostate cancer, among others.
Compounds of Formula (I) as obtained above were initially diluted to […] in 100% DMSO (CALBIOCHEM™) for storage and made into kinase buffer solution to create a compound concentration ranging from 1 uM and 10 uM. Serial dilutions of the compounds were dispensed into a 96-well plate (GREINER BIOSCIENCES™) at 6 μL each. Truncated human Axl (CARNA BIOSCIENCES™) were diluted in kinase buffer and added to the compound solutions and pre-incubated for 30 minutes at room temperature. […] The reaction mixture was incubated for 1 hour. Following the incubation, the stop solution made with EDTA, water, and Lance detection buffer ([…]™) were added (12 μL each) to stop phosphorylation.
Turning to `CN1CCC(Nc2nc(Nc3ccc(OCc4ccccc4)cc3)c3c(=O)[nH]cc(Br)c3n2)CC1` [Compound 221, 4-((4-(benzyloxy)phenyl)amino)-8-bromo-2-((1-methylpiperidin-4-yl)amino)pyrido[4,3-d]pyrimidin-5(6H)-one], the IC50 is 0.101 to 1 µM.

As for `CN1CCC(Nc2nc(Nc3ccc(OC4CCCC4)cc3)c3c(=O)[nH]cc(Br)c3n2)CC1` [Compound 223, 8-bromo-4-((4-(cyclopentyloxy)phenyl)amino)-2-((1-methylpiperidin-4-yl)amino)pyrido[4,3-d]pyrimidin-5(6H)-one], the IC50 was 0.101 to 1 µM.

Take `CN1CCC(Nc2nc(Nc3ccc(OCC4CCCCC4)cc3)c3c(=O)[nH]cc(Br)c3n2)CC1` [Compound 224, 8-bromo-4-((4-(cyclohexylmethoxy)phenyl)amino)-2-((1-methylpiperidin-4-yl)amino)pyrido[4,3-d]pyrimidin-5(6H)-one]: the IC50 lay in the range of 0.101 to 1 µM.

As to `Cc1ccc(Oc2ccc(Nc3nc(NC4CCN(C)CC4)nc4c(Br)c[nH]c(=O)c34)cc2)cc1` [Compound 225, 8-bromo-2-((1-methylpiperidin-4-yl)amino)-4-((4-(p-tolyloxy)phenyl)amino)pyrido[4,3-d]pyrimidin-5(6H)-one], the IC50 lay within 0.011 to 0.1 µM.

As for `CN1CCC(Nc2nc(Nc3ccc(OCC4CCCC4)cc3)c3c(=O)[nH]cc(Br)c3n2)CC1` [Compound 227, 8-bromo-4-((4-(cyclopentylmethoxy)phenyl)amino)-2-((1-methylpiperidin-4-yl)amino)pyrido[4,3-d]pyrimidin-5(6H)-one], the IC50 lay within 0.101 to 1 µM.

Consider `CN1CCC(Nc2nc(Nc3ccc(OC4CCCCC4)cc3)c3c(=O)[nH]cc(Cl)c3n2)CC1` [Compound 229, 8-chloro-4-((4-(cyclohexyloxy)phenyl)amino)-2-((1-methylpiperidin-4-yl)amino)pyrido[4,3-d]pyrimidin-5(6H)-one], for which the IC50 lay within 0.101 to 1 µM.

In the case of `CC(C)c1ccc(Oc2ccc(Nc3nc(NC4CCN(C)CC4)nc4c(Br)c[nH]c(=O)c34)cc2)cc1` [Compound 230, 8-bromo-4-((4-(4-isopropylphenoxy)phenyl)amino)-2-((1-methylpiperidin-4-yl)amino)pyrido[4,3-d]pyrimidin-5(6H)-one], the IC50 was in the range of 0.011 to 0.1 µM.

Regarding `Cc1ccc(Oc2ccc(Nc3nc(NC4CCN(C)CC4)nc4c(Br)c[nH]c(=O)c34)cc2)cc1` [Compound 231, 8-bromo-2-((1-methylpiperidin-4-yl)amino)-4-((4-(p-tolyloxy)phenyl)amino)pyrido[4,3-d]pyrimidin-5(6H)-one hydrochloride], the IC50 was 0.011 to 0.1 µM.

Consider `CN1CCC(Nc2nc(Nc3ccc(Oc4ccc(F)cc4)cc3)c3c(=O)[nH]cc(Br)c3n2)CC1` [Compound 232, 8-bromo-4-((4-(4-fluorophenoxy)phenyl)amino)-2-((1-methylpiperidin-4-yl)amino)pyrido[4,3-d]pyrimidin-5(6H)-one hydrochloride], for which the IC50 is 0.011 to 0.1 µM.

On to `CN1CCC(Nc2nc(Nc3ccc(OCc4ccccc4)cc3)c3c(=O)[nH]cc(Br)c3n2)CC1` [Compound 234, 4-((4-(benzyloxy)phenyl)amino)-8-bromo-2-((1-methylpiperidin-4-yl)amino)pyrido[4,3-d]pyrimidin-5(6H)-one hydrochloride], for which the IC50 lay in the range of 0.101 to 1 µM.

With `CC(C)c1ccc(Oc2ccc(Nc3nc(NC4CCN(C)CC4)nc4c(Br)c[nH]c(=O)c34)cc2)cc1` [Compound 236, 8-bromo-4-((4-(4-isopropylphenoxy)phenyl)amino)-2-((1-methylpiperidin-4-yl)amino)pyrido[4,3-d]pyrimidin-5(6H)-one hydrochloride], the IC50 was in the range of 0.011 to 0.1 µM.

Take `Cc1ccccc1Oc1ccc(Nc2nc(NC3CCN(C)CC3)nc3c(Br)c[nH]c(=O)c23)cc1` [Compound 239, 8-bromo-2-((1-methylpiperidin-4-yl)amino)-4-((4-(o-tolyloxy)phenyl)amino)pyrido[4,3-d]pyrimidin-5(6H)-one hydrochloride]: the IC50 lay in the range of 0.011 to 0.1 µM.

As for `CN1CCC(Nc2nc(Nc3ccc(Oc4ccc(Cl)cc4)cc3)c3c(=O)[nH]cc(Br)c3n2)CC1` [Compound 242, 8-bromo-4-((4-(4-chlorophenoxy)phenyl)amino)-2-((1-methylpiperidin-4-yl)amino)pyrido[4,3-d]pyrimidin-5(6H)-one hydrochloride], the IC50 was in the range of 0.011 to 0.1 µM.

`CN1CCC(Nc2nc(Nc3ccc(Oc4cc(F)cc(F)c4)cc3)c3c(=O)[nH]cc(Br)c3n2)CC1` [Compound 243, 8-bromo-4-((4-(3,5-difluorophenoxy)phenyl)amino)-2-((1-methylpiperidin-4-yl)amino)pyrido[4,3-d]pyrimidin-5(6H)-one hydrochloride]: the IC50 fell in the range of 0.011 to 0.1 µM.

`Cc1cc(Nc2nc(NC3CCN(C)CC3)nc3c(Br)c[nH]c(=O)c23)ccc1Oc1cccc(F)c1` [Compound 244, 8-bromo-4-((4-(3-fluorophenoxy)-3-methylphenyl)amino)-2-((1-methylpiperidin-4-yl)amino)pyrido[4,3-d]pyrimidin-5(6H)-one hydrochloride]: the IC50 was in the range of 0.011 to 0.1 µM.

`CN1CCC(Nc2nc(Nc3ccc(Oc4ccccc4)c(F)c3)c3c(=O)[nH]cc(Br)c3n2)CC1` [Compound 245, 8-bromo-4-((3-fluoro-4-phenoxyphenyl)amino)-2-((1-methylpiperidin-4-yl)amino)pyrido[4,3-d]pyrimidin-5(6H)-one hydrochloride]: the IC50 fell in the range of 0.011 to 0.1 µM.

Turning to `Cc1cc(Nc2nc(NC3CCN(C)CC3)nc3c(Br)c[nH]c(=O)c23)ccc1Oc1ccccc1` [Compound 246, 8-bromo-4-((3-methyl-4-phenoxyphenyl)amino)-2-((1-methylpiperidin-4-yl)amino)pyrido[4,3-d]pyrimidin-5(6H)-one hydrochloride], the IC50 lay within 0.011 to 0.1 µM.

On to `CN1CCC(Nc2nc(Nc3ccc(Oc4cccc(F)c4)c(F)c3)c3c(=O)[nH]cc(Br)c3n2)CC1` [Compound 247, 8-bromo-4-((3-fluoro-4-(3-fluorophenoxy)phenyl)amino)-2-((1-methylpiperidin-4-yl)amino)pyrido[4,3-d]pyrimidin-5(6H)-one hydrochloride], for which the IC50 fell in the range of 0.011 to 0.1 µM.

`CC(C)N1CCC(Nc2nc(Nc3ccc(Oc4ccccc4)cc3)c3c(=O)[nH]cc(Br)c3n2)CC1` [Compound 248, 8-bromo-2-(1-isopropylpiperidin-4-ylamino)-4-(4-phenoxyphenylamino)pyrido[4,3-d]pyrimidin-5(6H)-one]: the IC50 was 0.011 to 0.1 µM.

Consider `CCN1CCC(Nc2nc(Nc3ccc(Oc4ccccc4)cc3)c3c(=O)[nH]cc(Br)c3n2)CC1` [Compound 249, 8-bromo-2-(1-ethylpiperidin-4-ylamino)-4-(4-phenoxyphenylamino)pyrido[4,3-d]pyrimidin-5(6H)-one], for which the IC50 was 0.011 to 0.1 µM.

As for `O=c1[nH]cc(Br)c2nc(NC3CCN(CC(F)(F)F)CC3)nc(Nc3ccc(Oc4ccccc4)cc3)c12` [Compound 250, 8-bromo-4-(4-phenoxyphenylamino)-2-(1-(2,2,2-trifluoroethyl)piperidin-4-ylamino)pyrido[4,3-d]pyrimidin-5(6H)-one], the IC50 was in the range of 0.101 to 1 µM.

Staying with this assay, now noted: Table 2, range of IC50 value; read-out: Axl.
Take `CN1CCC(Nc2nc(Nc3ccc(OC4CCCC4)cc3)c3c(=O)[nH]cc(Br)c3n2)CC1` [Compound 223, 8-bromo-4-((4-(cyclopentyloxy)phenyl)amino)-2-((1-methylpiperidin-4-yl)amino)pyrido[4,3-d]pyrimidin-5(6H)-one]: the IC50 is 0.101 to 1 µM.

Turning to `Cc1ccc(Oc2ccc(Nc3nc(NC4CCN(C)CC4)nc4c(Br)c[nH]c(=O)c34)cc2)cc1` [Compound 225, 8-bromo-2-((1-methylpiperidin-4-yl)amino)-4-((4-(p-tolyloxy)phenyl)amino)pyrido[4,3-d]pyrimidin-5(6H)-one], the IC50 was 0.011 to 0.1 µM.
